# Where “and” joins values, the source holds several entries; their conditions need not be identical. Identical values can stand only once. Like-named read-outs stand apart in the source and are kept apart here.
# Key:
# [1] = tested on: HIV-1 (P2); experiment: Antiviral drug assay in PBMC (supernatant p24); assay type: cell-based; details: for p24 testing data, single readings: listed as H2K-1001 (900); for EC50: Human immunodeficiency virus 1, PBMC
# Protocol: Drug efficacy was determined by the production of supernatant HIV-1 p24. Drug-induced cytotoxicity was determined by the metabolic reduction of tetrazolium salts (MTS; Promega).
# The antiviral drug or agent of the invention, H2K-1001 (90i), was solubilized. PBMCs, stimulated with PHA (phytohemagglutinin) for three days were employed throughout. Virus stocks (U.S. Clinical isolates) grown in PBMCs only, that past the necessary quality controls (i.e., replicate to high titer in PBMCs and meet the requirements as to genotype and phenotype) were rapidly thawed and maintained on ice until required for infection.
# Virus and cell controls were included on each test plate. Virus was added after cells and drugs were mixed. Cell, drug and virus containing cultures were incubated for seven (7) days with an interim feeding at day three or four.
# Supernatants were sampled at seven days for p24 determination by antigen capture ELISA. Cytotoxicity was measured by the metabolic reduction of the tetrazolium salt according to the manufacturer’s (Promega) recommendations.
# The drug analysis reports from these studies are provided below in Tables 7-10. Efficacy (EC50) and viability (IC50) determinations were made using Cho and Cho Median Effect Equation, as noted above. Efficacy is expressed as the 50% effective concentration (EC50) and drug induced toxicity as the 50% inhibitory concentration (IC50).
# [2] = tested on: multi-drug resistant HIV-1 (MDR-27221); experiment: Inhibitory activity against multi-drug resistant HIV-1 clinical isolate; assay type: cell-based; details: MDR-27221 strain
# Description: Furthermore, a resistance conferring mutation has been identified for virtually all antiretroviral agents in clinical practice. A test virus parental stock originated from a genotypic antiretroviral resistance test (GART) study. Additionally, a clinical isolate was pre-confirmed for genetic and phenotypic variance prior to this test. […] Accordingly, the fact that 90I may be effective against MDR viruses with multiple modes of action, it can replace the need for combination HIV drug therapy. This finding may be highly significant because typical current single target-oriented designer antiretroviral drugs have seriously been challenged by resistant viruses. Due to natural selection, the HIV-1 virus may have developed several survival strategies that include mutation.
# [3] = tested on: HIV-1; experiment: Cell based time course study (mode of action); details: AZT and Indinavir as controls
# Description: As such, the cell based time course study is such an important tool for the determination of viral kinetics and a mode of action for a drug. […] The dynamics of the interactions relate to the viral kinetic of infection and drug addition at various time points. In the various cell-based assays conducted on H2K1001 and/or 90I, it may be reasonably concluded that the compound works both early and late.
# [4] = tested on: chronically HIV-1 infected H9 cells; experiment: Co-cultivation study with chronically HIV-1 infected H9 cells; assay type: cell-based
# Description: Viral pathogenesis in co-cultivation of infected cells with uninfected target cells presents a complex system with several target sites (attachment, fusion, transcription, processing, packaging and budding).
# In many documented antiretroviral studies, the co-culture system is conventionally used to isolate the virus as well as to study cell-to-cell transmission or to determine if a given compound blocks cell fusion. H2K1001 and/or 90I may use aggressive intervention that could possibly be directed to at least one of a late phase, early fusion and/or attachment, and both early and late. However, judging from the variety of 90I results, early and late mode of action is consistent to this compound.
structure (smiles),measurement,setting,value
"O=C(OCCOCCOC(=O)c1ccccc1)c1ccccc1 [90I, diethylene glycol dibenzoate]",Efficacy % p24 Reduction,[1]; 0.01 ug/ml,23%
same,"p24 testing data, mean reading",[1]; 0.01 ug/ml,2.2023
same,"p24 testing data, single readings",[1]; 0.01 ug/ml,2.100 and 2.2130 and 2.2937
same,Efficacy % p24 Reduction,[1]; 0.03 ug/ml,25%
same,"p24 testing data, mean reading",[1]; 0.03 ug/ml,2.1373
same,"p24 testing data, single readings",[1]; 0.03 ug/ml,2.1210 and 1.9460 and 2.3450
same,Efficacy % p24 Reduction,[1]; 0.10 ug/ml,36%
same,"p24 testing data, mean reading",[1]; 0.10 ug/ml,1.8337
same,"p24 testing data, single readings",[1]; 0.10 ug/ml,1.9461 and 1.8101 and 1.7450
same,Efficacy % p24 Reduction,[1]; 0.33 ug/ml,36%
same,"p24 testing data, mean reading",[1]; 0.33 ug/ml,1.8344
same,"p24 testing data, single readings",[1]; 0.33 ug/ml,1.9451 and 1.7120 and 1.8460
same,Efficacy % p24 Reduction,[1]; 1 ug/ml,53%
same,"p24 testing data, mean reading",[1]; 1 ug/ml,1.3316
same,"p24 testing data, single readings",[1]; 1 ug/ml,1.4266 and 1.4567 and 1.1116
same,"p24 testing data, mean reading",[1]; 3 ug/ml,0.3713
same,Efficacy % p24 Reduction,[1]; 3 ug/ml (3.2 in Table 11),87%
same,"p24 testing data, single readings",[1]; 3 ug/ml,0.4510 and 0.3219 and 0.3410
same,Efficacy % p24 Reduction,[1]; 10 ug/ml,95%
same,"p24 testing data, mean reading",[1]; 10 ug/ml,0.1397
same,"p24 testing data, single readings",[1]; 10 ug/ml,0.1090 and 0.1220 and 0.1874
same,Efficacy % p24 Reduction,[1]; 32 ug/ml,94%
same,"p24 testing data, mean reading",[1]; 32 ug/ml,0.1690
same,Efficacy % p24 Reduction,[1]; 100 ug/ml,93%
same,"p24 testing data, mean reading",[1]; 100 ug/ml,0.1946
same,"p24 testing data, single readings",[1]; 100 ug/ml,0.1530 and 0.1820 and 0.2488
same,TI,[1]; HIV-1 P2 in PBMC,greater than 125
same,EC50,"[1]; HIV-1 P2 clinical isolate in PBMC, read-out: EC50",~0.8 µg/mL
same,EC50,"[1]; PBMC, virus printed HIV-IRF, read-out: BC50 (the source's name)",0.8 µg/mL
same,EC50,[2]; Human immunodeficiency virus 1,3 µg/mL
same,TI,[2],> 333
same,mode of action (time of inhibition),[3],inhibit HIV-1 both early and late
same,syncytium formation,[4]; co-cultivation,drastic drop
same,cell viability,"[4]; co-cultivation, exponential cell growth",greater than ninety percent
same,viral burden (p24) after treatment,"[4]; co-cultivation, from 1.7 ×10^6 pg of p24",500 pg
same,progression of HIV-1 infection,[4]; compared to untreated controls,effectively blocked the progression of HIV-1 infection
